Laboratory results published in patent publication US7592144B2, “Bacterial ligand-binding sensor” (The Trustees of Princeton University, priority 2005, dated 2009).
“Also recorded” adds a separate entry of the source.

Experiments:
[1] = target: T1, human thyroid hormone receptor beta ligand-binding domain (Homo sapiens, UniProt P10828); assay: Growth phenotype of E. coli D1210(delta)thyA cells carrying pMIT::TR* in liquid thymineless medium; assay type: cell-based; settings: 34 degrees Celsius, ligand 10 micromolar
T1 construct: expressed in transfected cells; host or cells: E. coli D1210(delta)thyA carrying pMIT::TR*
T1 sequence (P10828 203-461): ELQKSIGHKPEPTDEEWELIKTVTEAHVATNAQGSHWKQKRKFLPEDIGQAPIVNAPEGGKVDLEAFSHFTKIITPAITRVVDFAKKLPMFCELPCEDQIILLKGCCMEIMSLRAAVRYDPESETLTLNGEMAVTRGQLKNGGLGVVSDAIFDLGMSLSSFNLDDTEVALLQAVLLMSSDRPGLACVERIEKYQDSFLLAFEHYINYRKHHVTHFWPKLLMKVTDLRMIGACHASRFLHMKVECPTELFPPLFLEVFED
Protocol: (§1) FIG. 2 consists of FIGS. 2A, 2B, 2C, and 2D. FIG. 2A is a graph that depicts ligand effects on the growth phenotypes of E. coli D1210(delta)thyA cells carrying the pMIT::ER* vector in 50 milliliter cultures of liquid thymineless medium at 34 degrees Celsius. […] Varying concentrations of estrogen were dissolved in dimethylsulfoxide to allow precise control of dosing. Experiments were carried out in duplicate and errors bars represent one standard deviation from the mean value. FIG. 2C is a graph that depicts ligand effects on the growth phenotypes of cells harboring pMIT::TR* in 50 milliliter cultures of liquid thymineless medium at 34 degrees Celsius. FIG. 2D is an image that depicts ligand effects on the growth phenotypes of cells harboring pMIT::TR* and incubated on thymineless agar plates at 30 degrees Celsius for approximately 50 hours. […] In the experiment corresponding to FIG. 2D, the paper disks applied were allowed to saturate in 10 millimolar solutions of estrogen and thyroid hormone prior to applying them to the medium.
(§2) All experiments were carried out at least in duplicate.

[2] = target: T2, human estrogen receptor alpha ligand-binding domain (Homo sapiens, UniProt P03372); assay: Growth phenotype of E. coli D1210(delta)thyA cells carrying pMIT::ER* in liquid thymineless medium; assay type: cell-based; settings: 34 degrees Celsius, ligand 10 micromolar
T2 construct: expressed in transfected cells; host or cells: E. coli D1210(delta)thyA carrying pMIT::ER*
T2 sequence (P03372 301-553): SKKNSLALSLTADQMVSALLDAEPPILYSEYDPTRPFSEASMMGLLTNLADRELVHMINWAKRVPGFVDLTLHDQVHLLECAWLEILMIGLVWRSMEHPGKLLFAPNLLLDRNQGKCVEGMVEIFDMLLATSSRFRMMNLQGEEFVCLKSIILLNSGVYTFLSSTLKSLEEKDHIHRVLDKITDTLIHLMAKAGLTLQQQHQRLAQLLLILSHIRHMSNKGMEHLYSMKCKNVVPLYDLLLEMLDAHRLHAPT
Protocol: as §1, §2

[3] = target: T1, human thyroid hormone receptor beta ligand-binding domain; assay: Paper disk growth test of cells harboring pMIT::TR* on thymineless agar plates; assay type: cell-based; settings: 30 degrees Celsius, approximately 50 hours, disks saturated in 10 millimolar solutions
Protocol: as §1
In this case a lawn of cells was plated onto thymineless medium and exposed to small paper disks impregnated with either estrogen or thyroid hormone.

ER = target: T3, ER (Homo sapiens, UniProt P03372); assay: Hormone-dependent growth with inteinless MBP-ER-TS fusion
T3 sequence (P03372 301-553): T2 sequence (P03372 301-553)

[4] = target: T2, human estrogen receptor alpha ligand-binding domain; assay: Detection of antagonism: pMIT::ER* cells grown in the presence of E2 plus increasing concentrations of test compound; assay type: cell-based; settings: 10 micromolar E2, liquid thymineless medium, 34 degrees Celsius, OD600 at 15 hours
Protocol: FIG. 4 is a graph showing antagonism of estrogen agonists and antagonists. […] Relative cell growth was determined by OD600 at 15 hours in 5 milliliter cultures of liquid thymineless medium at 34 degrees Celsius.
as §2

For `N[C@@H](Cc1ccc(Oc2cc(I)c(O)c(I)c2)c(I)c1)C(=O)O` [T3, 3,3′,5′-triiodo-L-thyronine], the “ligand effect on cell growth” value [1] was “able to grow only in the presence; also recorded: able to enhance growth”, the “ligand effect on cell growth” value [2] was “insensitive; also recorded: enhance growth only in cell cultures expressing the TR fusion” and the “colony formation around ligand-impregnated paper disk” value [3] was “clear colonies were observed”.

For 17-beta-estradiol [E2], the “colony formation around ligand-impregnated paper disk” value [3] was “no colonies could be observed”.

`CC(=O)[C@H]1CC[C@H]2[C@@H]3CCC4=CC(=O)CC[C@]4(C)[C@H]3CC[C@]12C` [progesterone] was tested, and the “ligand effect on cell growth” value [1] was “no effect on cell growth” and the “ligand effect on cell growth” value [2] was “no effect on cell growth”.

In the case of 4-hydroxytamoxifen, the “behaviour (agonist/antagonist) with inteinless fusion” value (ER) is reported as “estrogen super-agonist” and the “effect on cell growth when combined with estrogen agonist” value [4] is reported as “inhibitory effects”.
